Data reported in PMC4823124, “Selective targeting of BCL6 induces oncogene addiction switching to BCL2 in B-cell lymphoma” (Oncotarget, 2015).
One block for each compound: values may come before it.

Tests used:
OCI-Ly1 cells = test: Cell viability of OCI-Ly1 cells transfected with siRNA and treated with ABT-737; type: cell-based; settings: ABT-737 250 nM for 72 h
Method: DLBCL cells (3 × 10^6 to 5 × 10^6) were transfected with 1 micromolar siRNA for BCL6 (siBCL6-1 HSS100968 Life Technologies, siBCL6-2 SI00311129 Qiagen, siBCL6-3 SI0031143 Qiagen and siBCL6-4 SI0031150 Qiagen) or control (GFP targeting siRNA) using 96-well electroporation (SF buffer, Lonza).
Cells were grown on U-bottom 96-well plates at respective concentrations sufficient to keep untreated cells under exponential growth by the time of read-out after treatment. Cells were exposed to each drug alone and to the combination of both drugs on the same plate in 48 h experiments. In sequential experiments, compounds were added 48 h apart in 72 h experiments. Cell viability was then determined using a fluorometric assay based on the resazurin reduction activity of the cells (Cell Titer Blue, Promega) and confirmed by trypan blue dye-exclusion (Sigma). Fluorescence was determined for controls and three replicates per treatment condition using the Synergy4 microplate reader (BioTek). Standard curves were obtained for each individual cell line with the cell count and fluorescence values. The number of viable cells was obtained using the least-squares regression method of the standard curve and by doing a ratiometric quantification of viable cells normalized to the respective controls. […] A cell killing effect was calculated as the 1 — normalized viability value.

[1] = test system: BCL2 independent DLBCL cells; test: Dose reduction index, sequential RI-BPI then BH3 mimetic; type: cell-based; settings: pre-treated 48 h with RI-BPI, sequential 72 h; all but one (SU-DHL8) of the BCL2 independent DLBCL cell lines, including OCI-Ly7
Method: (§1) Cells were grown on U-bottom 96-well plates at respective concentrations sufficient to keep untreated cells under exponential growth by the time of read-out after treatment. Cells were exposed to each drug alone and to the combination of both drugs on the same plate in 48 h experiments. In sequential experiments, compounds were added 48 h apart in 72 h experiments. Cell viability was then determined using a fluorometric assay based on the resazurin reduction activity of the cells (Cell Titer Blue, Promega) and confirmed by trypan blue dye-exclusion (Sigma). Fluorescence was determined for controls and three replicates per treatment condition using the Synergy4 microplate reader (BioTek). Standard curves were obtained for each individual cell line with the cell count and fluorescence values. The number of viable cells was obtained using the least-squares regression method of the standard curve and by doing a ratiometric quantification of viable cells normalized to the respective controls. Experiments were conducted in triplicates. A cell killing effect was calculated as the 1 — normalized viability value.

SU-DHL6 = test: Growth inhibition (GI50); type: cell-based; settings: 48 h, resazurin reduction
Method: as §1

SC-1 = test: Growth inhibition (GI50); type: cell-based; settings: 48 h, resazurin reduction
Method: as §1

SU-DHL4 = test: Growth inhibition (GI50); type: cell-based; settings: 48 h, resazurin reduction
Method: as §1

DoHH2 = test: Growth inhibition (GI50); type: cell-based; settings: 48 h, resazurin reduction
Method: as §1

OCI-Ly7 = test: Growth inhibition (GI50); type: cell-based; settings: OCI-Ly7 (harbors a BCL2 deletion); Figure 2A, for ABT-737 also ref 14
Method: as §1

OCI-Ly1 xenografts = test: OCI-Ly1 xenograft tumor growth; type: in vivo; settings: OCI-Ly1 xenografts in SCID mice, i.p. 10 days; RI-BPI 25 mg/kg/day, ABT-737 50 mg/kg/day, bortezomib 0.3 mg/kg/day, MLN4924 15 mg/kg every 12 h; p<0.05, T-test
Method: (§2) For these experiments OCI-Ly1 and OCI-Ly7 cells were injected in the right flank of SCID mice (n = 80 for each cell line) and tumor growth was allowed until reaching a volume of 75 - 100 mm^3. […] Tumor growth was measured every day during the 10-day treatment course and the area under the curve (AUC) was calculated.
(§3) Mouse xenografts: Animal procedures followed NIH protocols and were approved by the Animal Institute Committee of the Weill Cornell College or Medicine. SCID mice were subcutaneously injected on the right flank with GCB-DLBCL cell lines OCI-Ly1, OCI-Ly7 and SU-DHL6. Tumor volumes were monitored every day using electronic calipers (Fischer Scientific). When tumor reached a palpable size (around 75 to 100 mm^3) animals were randomized into 8 groups of 10 mice (or four groups of 5 mice for SU-DHL6 xenografts) and treated intraperitoneally accordingly to the schedule and doses shown in Figure 5A. In combinatorial treatments, mice were injected with RI-BPI (or vehicle) alone the first day followed by the combination the subsequent days. We used the area-under-the-curve (AUC) as the quantitative metric to represent the evolution of tumor volume over the time frame (10 – 13 days) of the experiment. The comparisons between treated and control mice were done using MANOVA followed by pair-wise comparison using the two-tailed T-test or Mann Whitney test for SU-DHL6 mice. Rat pharmacokinetic: Animal procedures followed NIH protocols and were conducted by Calvert Laboratories (study 0835RM44.001, Scott Township, PA). Briefly, male Sprague=Dawley rats (n = 3) were injected intravenously with 10 mg/kg of RI-BPI in sterile 50% water:50% saline and whole blood samples were collected through a jugular vein catheter at several time-points. Derived plasma samples were analyzed by HPLC-UV to determine RI-BPI concentration. Pharmacokinetic parameters were estimated using a non-compartmental approach consistent with the route of administration. The AUC that describe the total exposure to RI-BPI was estimated with the linear trapezoidal method and used to derive in vitro exposure doses.

OCI-Ly4 = test: Cell viability, RI-BPI, ABT-737 or combination; type: cell-based; settings: BCL6-independent GCB-DLBCL cell line OCI-Ly4; 48 h; quintuplicates
Method: as §1, with “Fluorescence was determined for controls and three replicates per treatment condition using the Synergy4 microplate reader (BioTek).” left out, “Experiments were conducted in triplicates.” left out
(§4) www.impactjournals.com/oncotarget/ Oncotarget, Supplementary Materials 2015
Supplementary Figure S2: Baseline features of DLBCL cells responsive and resistant to RI-BPI. A. Baseline features of
RI-BPI sensitive (S) and resistant (R) groups of DLBCL cells according to cell-of-origin (COO) classification into GCB and ABC groups,
the presence of BCL6 translocation (3q27) and BCL2 mutation (including amplification and translocation). […]

OCI-Ly7 xenografts = test: OCI-Ly7 xenograft tumor growth; type: in vivo, SCID mice; settings: p<0.05, T-test; for tumor growth at day 10 (AUC of tumor volume) vs vehicle: OCI-Ly7 xenografts in SCID mice, i.p. 10 days, RI-BPI 25 mg/kg/day, obatoclax 2 mg/kg/day, bortezomib 0.3 mg/kg/day, MLN4924 15 mg/kg every 12 h
Method: as §2, §3

NFkB (p50, p52, p65) = test: NFkB DNA-binding activity assay (TransAM), HBL-1 cells; type: cell-based; settings: HBL-1 (ABC-DLBCL) cells; drug at GI50 for 24 h; decreased almost completely
Method: The DNA-binding capacity of NFkB (p50, p52, c-Rel, Rel-B and p65) was assayed by a plate-based assay (TransAM, Active Motif, Carlsbad) following the manufacturer instructions. Briefly, 5×10^6 GCB-DLBCL cells were treated with vehicle, bortezomib or MLN4924 and 10 μg of nuclear lysates were added to the wells containing pre-adsorbed NFkB consensus or competitor (mutant) oligonucleotides. HBL-1 cells (ABC-DLBCL) were used as positive controls for the assay. After incubation and washing, primary anti-NFkB antibody was added to each well, followed by HPR-anti-rabbit secondary antibody. After HRP substrate addition, absorbance was read at 450 nm with a reference wavelength of 655 nm (Synergy4, Biotek). In this assay the absorbance is directly proportional to the quantity of DNA-bound transcription factor present in the sample. Experiments were carried out in four replicates. Results were expressed as mean absorbance values with SEM to mutant probe. P-values were obtained by two-tailed T-test.

NOXA = NOXA immunoblot; type: cell-based; settings: SU-DHL6 and OCI-Ly1 cells, 24 h
Method: (§5) Cell pellets containing 5 × 10^6 cells were washed with ice-cold phosphate buffer saline and lysed with RIPA buffer (Tris-HCl 50mM, NaCl, 150 mM, NP-40 1%, Sodium Deoxylcholate 0.25%, SDS 0.1%), and fresh protease inhibitor cocktail (Roche) was added. Protein concentration in lysates was determined by BCA assay (Pierce) and 15 μg of protein sample were loaded on polyacrylamide electrophoresis pre-cast gels (BioRad). PVDF membranes were blocked with 5% non-fat dry milk (Blotting buffer, BioRad). Experiments were conducted at least in independent triplicates. Densitometry analysis was performed using ImageJ. We used the following primary antibodies: mouse anti-BCL6 (SC-7388, Santa Cruz), rabbit anti-BCL2 (SC-7382, Santa Cruz), rabbit anti-MCL1 (SC-819, Santa Cruz), rabbit anti-BIM (2933S, Cell Signaling Technologies), rabbit anti-BLC-XL (2764S, Cell Signaling Technologies), mouse anti-GAPDH (ab8245, Abcam), rabbit anti-NOXA (Santa Cruz), mouse anti-tubulin (T9026, Sigma-Aldrich), rabbit anti-BMF (ab181148, Abcam) and rabbit anti-caspase 9 (9502, Cell Signaling Technologies).

[2] = test system: BCL6-dependent GCB-DLBCL cell lines; test: Dose reduction index, MLN4924 or bortezomib after RI-BPI; type: cell-based; settings: 8 BCL6-dependent GCB-DLBCL cell lines pre-treated with RI-BPI; all the cell lines tested
Method: as §1

[3] = for MPV: C57BL/6 mice, i.p., schedule and doses of xenograft mice (RI-BPI 25, obatoclax 2, bortezomib 0.3 mg/kg/day, MLN4924 15 mg/kg every 12 h), vehicle 6.7
Excerpt: as §4
Hematological and biochemical parameters of C57BL/6 mice treated with the schedule and doses of OCI-Ly1 and OCI-Ly7

OCI-Ly1 lymphoma tissues = test: TUNEL assay of xenografted lymphoma tissues; type: in vivo, SCID mice; settings: post-treatment OCI-Ly1 lymphoma tissues; Mann-Whitney p = 0.0004 (RI-BPI), 0.002 (obatoclax), 0.0008 (bortezomib)
Method: DNA fragmentation coupled to the apoptotic response was detected in morphologically identifiable nuclei and apoptotic bodies present in formalin-fixed paraffin-embedded tumors by the TUNEL assay (ApopTag, Chemicon, Temecula, California) following the manufacturer's instructions. Tissue slides were pre-treated with 0.5% trypsin for 15 minutes (Zymed, San Francisco, California), to improve the exposure of DNA.

NFkB (p50) = test: NFkB DNA-binding activity assay (TransAM), OCI-Ly1 cells; type: cell-based; settings: drug at GI50 for 24 h, only p50 changed
BMF = BMF immunoblot; type: cell-based; settings: SU-DHL6 cells
Method: as §5

[4] = test system: BCL6-dependent GCB-DLBCL cells; test: Growth inhibition (GI50), panel of BCL6-dependent GCB-DLBCL cells; type: cell-based; settings: 6 cell lines of the GCB-DLBCL panel; single agent
Method: as §1

sensitivity as single agent (GI50) (SU-DHL6): sensitive
sensitivity as single agent (GI50) (SU-DHL4): sensitive
sensitivity as single agent (GI50) (OCI-Ly7): highly resistant
Structure (SMILES): CN(C)CC[C@H](CSc1ccccc1)Nc1ccc(S(=O)(=O)NC(=O)c2ccc(N3CCN(Cc4ccccc4-c4ccc(Cl)cc4)CC3)cc2)cc1[N+](=O)[O-] [ABT-737]
loss of viability (OCI-Ly1 cells; OCI-Ly1 transfected with BCL6 siRNA, BCL6 knockdown alone 68%, p < 0.03, T-test): 97%
cells killed (loss of viability) (OCI-Ly1 cells; OCI-Ly1 transfected with control siRNA): 57%
sensitivity to BH3 mimetic after RI-BPI treatment (dose reduction index) [1]: gained sensitivity
sensitivity as single agent (GI50) (SC-1): sensitive
sensitivity as single agent (GI50) (DoHH2): sensitive
tumor growth at day 10 (AUC of tumor volume) vs vehicle (OCI-Ly1 xenografts): significantly reduced
sensitization to RI-BPI by pre-treatment with ABT-737 (OCI-Ly4): failed to sensitize

Structure (SMILES): CC(C)C[C@H](NC(=O)[C@H](Cc1ccccc1)NC(=O)c1cnccn1)B(O)O [bortezomib]
tumor growth at day 10 (AUC of tumor volume) vs vehicle (OCI-Ly7 xenografts): significantly reduced
single-agent efficacy compared between drugs (OCI-Ly7 xenografts; OCI-Ly7 xenografts): more effective than obatoclax
NFκB activation (DNA binding of p50, p52 and p65) (NFkB (p50, p52, p65)): decreased
NOXA protein levels (NOXA): significant stabilization of NOXA
sensitivity as single agent (GI50) (SC-1): resistant
sensitivity as single agent (GI50) (SU-DHL4): resistant
enhancement of response to RI-BPI (dose reduction index) [2]: favorable DRIs
MPV [3]: 6.6 fL
toxicity by body weight follow-up, plasma hematology and biochemistry parameters ([3]; mouse, in vivo): mild monocytosis and AST increase
percent of apoptotic nuclei (TUNEL) vs vehicle control (OCI-Ly1 lymphoma tissues): significantly increased
tumor growth at day 10 (AUC of tumor volume) vs vehicle (OCI-Ly1 xenografts): significantly reduced
NFκB activation (DNA binding of p50) (NFkB (p50)): mild decrease

Structure (SMILES): NS(=O)(=O)OC[C@@H]1C[C@@H](n2ccc3c(N[C@H]4CCc5ccccc54)ncnc32)C[C@@H]1O [MLN4924]
tumor growth at day 10 (AUC of tumor volume) vs vehicle (OCI-Ly7 xenografts): significantly reduced
NFκB activation (DNA binding of p50, p52 and p65) (NFkB (p50, p52, p65)): decreased
NOXA protein levels (NOXA): significant stabilization of NOXA
BMF protein levels (BMF): increased
enhancement of response to RI-BPI (dose reduction index) [2]: favorable DRIs
GI50 [4]: > 100 nM
MPV [3]: 6.5 fL
tumor growth at day 10 (AUC of tumor volume) vs vehicle (OCI-Ly1 xenografts): significantly reduced

Structure (SMILES): COC1=CC(c2cc3ccccc3[nH]2)=N/C1=C\c1[nH]c(C)cc1C [obatoclax]
tumor growth at day 10 (AUC of tumor volume) vs vehicle (OCI-Ly7 xenografts): significantly reduced
sensitivity to BH3 mimetic after RI-BPI treatment (dose reduction index) [1]: gained sensitivity
sensitivity as single agent (GI50) (SU-DHL6): sensitive
sensitivity as single agent (GI50) (SC-1): sensitive
sensitivity as single agent (GI50) (SU-DHL4): sensitive
sensitivity as single agent (GI50) (DoHH2): sensitive
sensitivity as single agent (GI50) (OCI-Ly7): highly resistant
MPV [3]: 6.4 fL
percent of apoptotic nuclei (TUNEL) vs vehicle control (OCI-Ly1 lymphoma tissues): significantly increased
